Assay results as given in ChEMBL document CHEMBL4145516, “Rational design of novel TLR4 ligands by in silico screening and their functional and structural characterization in vitro” (2018).
Activity calls are given as the source filed them. No cut-off for these calls is given here.

How the values were obtained:
[1] = molecular target: Toll-like receptor 4 (Homo sapiens) (UniProt O00206); assay: Agonist activity at human TLR4 expressed in HEK-blue cells coexpressing MD2 at 1.07 10^-5M by SEAP reporter gene assay relative to MPLA; assay type: cell-based
Toll-like receptor 4 (Homo sapiens), sequence (O00206 whole entry): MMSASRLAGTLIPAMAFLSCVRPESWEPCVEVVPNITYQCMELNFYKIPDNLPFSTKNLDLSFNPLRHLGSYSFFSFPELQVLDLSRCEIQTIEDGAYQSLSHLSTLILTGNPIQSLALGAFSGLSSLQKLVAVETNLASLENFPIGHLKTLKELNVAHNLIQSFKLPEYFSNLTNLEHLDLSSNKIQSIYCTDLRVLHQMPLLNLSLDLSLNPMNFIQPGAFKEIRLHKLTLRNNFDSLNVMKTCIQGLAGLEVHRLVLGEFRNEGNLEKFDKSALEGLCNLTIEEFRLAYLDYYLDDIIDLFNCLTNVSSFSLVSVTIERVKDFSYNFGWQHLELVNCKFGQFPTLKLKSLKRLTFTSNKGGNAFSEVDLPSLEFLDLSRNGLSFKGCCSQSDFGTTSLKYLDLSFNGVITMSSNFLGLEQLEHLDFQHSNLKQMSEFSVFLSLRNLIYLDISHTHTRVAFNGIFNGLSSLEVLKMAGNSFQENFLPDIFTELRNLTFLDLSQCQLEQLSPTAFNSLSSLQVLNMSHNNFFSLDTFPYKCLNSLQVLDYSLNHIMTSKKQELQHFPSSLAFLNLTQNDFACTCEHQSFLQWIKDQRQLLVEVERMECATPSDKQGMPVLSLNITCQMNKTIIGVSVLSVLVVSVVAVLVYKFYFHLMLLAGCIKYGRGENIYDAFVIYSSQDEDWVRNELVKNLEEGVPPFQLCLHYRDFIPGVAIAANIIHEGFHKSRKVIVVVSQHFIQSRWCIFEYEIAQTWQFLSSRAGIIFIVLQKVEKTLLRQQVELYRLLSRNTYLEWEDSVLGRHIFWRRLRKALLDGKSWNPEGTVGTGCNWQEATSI

PBMC = assay: Immunostimulatory activity in human PBMC assessed as increase in IL-6 release at 10 uM after 24 hrs by ELISA; assay type: functional
[2] = molecular target: Toll-like receptor 4 (Homo sapiens) (UniProt O00206); assay: Agonist activity at human TLR4 expressed in HEK-blue cells coexpressing MD2 at 1.07 10^-5M by SEAP reporter gene assay; assay type: cell-based
[3] = molecular target: Toll-like receptor 4 (Homo sapiens) (UniProt O00206); assay: Agonist activity at human TLR4 expressed in HEK-blue cells coexpressing MD2 at 1.11 10^-5M by SEAP reporter gene assay; assay type: cell-based
[4] = molecular target: Toll-like receptor 4 (Homo sapiens) (UniProt O00206); assay: Agonist activity at human TLR4 expressed in HEK-blue cells coexpressing MD2 at 1.11 10^-5M by SEAP reporter gene assay relative to MPLA; assay type: cell-based
[5] = molecular target: Toll-like receptor 4 (Homo sapiens) (UniProt O00206); assay: Agonist activity at human TLR4 expressed in HEK-blue cells coexpressing MD2 at 1.06 10^-5M by SEAP reporter gene assay relative to MPLA; assay type: cell-based
[6] = molecular target: Toll-like receptor 4 (Homo sapiens) (UniProt O00206); assay: Agonist activity at human TLR4 expressed in HEK-blue cells coexpressing MD2 at 500 ng/ml by SEAP reporter gene assay relative to MPLA; assay type: cell-based
[7] = molecular target: Toll-like receptor 4 (Homo sapiens) (UniProt O00206); assay: Agonist activity at human TLR4 expressed in HEK-blue cells coexpressing MD2 at 1.15 10^-5M by SEAP reporter gene assay; assay type: cell-based
[8] = molecular target: Toll-like receptor 4 (Homo sapiens) (UniProt O00206); assay: Agonist activity at human TLR4 expressed in HEK-blue cells coexpressing MD2 at 0.99 10^-5M by SEAP reporter gene assay; assay type: cell-based

Row | SMILES | Activity (PBMC) | other results
1 | COc1ccc(CNC(=O)CCN2C(=O)C3C4c5ccccc5C(c5ccccc54)C3C2=O)cc1 (stereo not drawn) | 219.76 pg/mL | Activity [1]: 50%; Activity [2]: Active
2 | Cc1ccc(CNC(=O)CCN2C(=O)C3C4c5ccccc5C(c5ccccc54)C3C2=O)cc1 (stereo not drawn) | 5.76 pg/mL | Activity [3]: Active; Activity [4]: 50%
3 | O=C(CCN1C(=O)C2C3c4ccccc4C(c4ccccc43)C2C1=O)NCc1ccc(Cl)cc1 (stereo not drawn) | 0.725 pg/mL | Activity [5]: 50%
4 | O=C(CCN1C(=O)C2C3c4ccccc4C(c4ccccc43)C2C1=O)NC1CCCCCCC1 (stereo not drawn) | 212.56 pg/mL | –
5 | O=C(CCN1C(=O)C2C3c4ccccc4C(c4ccccc43)C2C1=O)NC1CCCCC1 (stereo not drawn) | inactive | –
6 | CC(C)(C)NC(=O)CCN1C(=O)C2C3c4ccccc4C(c4ccccc43)C2C1=O (stereo not drawn) | inactive | –
7 | CC(=O)Nc1ccc(-c2ccc(N3C(=O)C4C5c6ccccc6C(c6ccccc65)C4C3=O)cc2)cc1 (stereo not drawn) | – | Activity [6]: 30%
8 | CC(C)CNC(=O)CCN1C(=O)C2C3c4ccccc4C(c4ccccc43)C2C1=O (stereo not drawn) | inactive | –
9 | O=C(CCN1C(=O)C2C3c4ccccc4C(c4ccccc43)C2C1=O)NCc1ccccc1 (stereo not drawn) | inactive | Activity [7]: inactive
10 | O=C(CCN1C(=O)C2C3c4ccccc4C(c4ccccc43)C2C1=O)NC1CCCCCC1 (stereo not drawn) | 7.3 pg/mL | –
11 | O=C(CCN1C(=O)C2C3c4ccccc4C(c4ccccc43)C2C1=O)NCc1ccc(Cl)c(Cl)c1 (stereo not drawn) | inactive | Activity [8]: inactive
